Here are results for five compounds from patent publication US20250170120A1, “ALLOSTERIC STING MODULATORS AND METHODS OF USE” (THE BOARD OF REGENTS OF THE UNIVERSITY OF TEXAS SYSTEM, priority 2022, published 2025).

The target of test [1] is human STING (Homo sapiens, UniProt Q86WV6). Particulars: cited from earlier work.
The target of test [2] is T1, human STING (Homo sapiens, UniProt Q86WV6, H232R).
T1 construct: human STING residues 1-343, excluding the C-terminal tail; T6SS immunity protein 3 (Tsi3) from Pseudomonas aeruginosa (C, cleaved yes); human rhinovirus 3C protease cleavage site (C); made in house; host or cells: HEK293F cells (pEZT-BM vector)
As to the kind of experiment: Cryo-EM structure of human STING in complex with compound. Format: binding. Here is the method:
Cryo-EM data collection and image processing. Purified wild type human STING at 50 μM were incubated with cGAMP at 100 μM and C53 at 100 μM for formation of the protein/ligands complex. The complex was purified using a Superose 6 10/300 gel filtration column (GE healthcare) in buffer C. Peak fractions were collected and concentrated to 2.9 mg/ml. Additional cGAMP (100 μM) and C53 (100 μM) were added to ensure saturation of the protein by the ligands. The sample was applied to a glow-discharged Quantifoil R1.2/1.3 300-mesh gold holey carbon grid (Quantifoil, Micro Tools GmbH, Germany), blotted under 100% humidity at 4° C. and plunged into liquid ethane using a Mark IV Vitrobot (FEI).
Micrographs were collected on a Titan Krios microscope (FEI) with a K3 Summit direct electron detector (Gatan) in the super-resolution counting mode operated at 300 kV. The slit width of the GIF-Quantum energy filter was set to 20 eV. The nominal magnification was 81,000× and the pixel size of 1.08 Å. Micrographs were dose-fractioned into 36 frames with a total exposure time of 7.2 s at the dose rate of 1.6 e^−/Å^2/frame in the correlated double sampling (CDS) mode. Movie frames were motion-corrected and dose-weighted using the Motioncorr2 program (version 1.2). GCTF 1.06 was used for CTF correction. […] Local resolution was calculated in RELION (FIG. 6B). […]

Test [3] addresses T2, STING (Homo sapiens, UniProt Q86WV6, G230A/H232R/R293Q/R71H).
T2 construct: host or cells: THP-1 / THP1-Dual / THP1-Lucia ISG cells
Kind of test: STING pathway activity in THP1-Dual/THP-1 cells upon cGAMP or MSA-2 stimulation (luciferase/interferon readout). It is filed as cell-based. Particulars: THP-1 cells; for inhibition at 10 µM: 10 μM compound, cGAMP (100 μM) or MSA-2 (10 μM) stimulation; for Induction of interferon production in the presence of MSA2: 10 μM MSA2; for Induction of interferon production in the presence of MSA2 / Interferon production in the presence of cGAMP: increasing concentrations of compound; for Interferon production in the presence of cGAMP: 100 μM cGAMP. The text has this:
(§1) Methods of measuring STING activity and by extension, the activity of the compounds discussed herein, are known in the art. As an example, the STING pathway activity may be evaluated using reporter cell lines where a reporter gene (i.e., luciferase, GFP) is expressed under direct or indirect control of interferon response elements. For example, in an exemplary embodiment, the STING pathway can be measured using THP1-Dual™ cells (InvivoGen) which express the Lucia gene (a secreted luciferase reporter gene) under the control of an ISG54 minimal promoter in conjunction with five IFN-stimulated response elements. The STING pathway, when activated, stimulates interferon release which, in this model, will increase luciferase expression in a detectable manner. When inhibited, interferon release will be decreased, reducing luciferase expression in a detectable manner. The compounds can optionally be tested in the presence of external stimulation (i.e., using cGAMP, a natural agonist of STING, or MSA-2).
The STING pathway activity was evaluated in THP1-Dual™ cells (Invivogen). […] After incubating at 37° C. for 16 hours, the luciferase activity was measured by QUANTI-Luc™ (Invivogen).

The target of test [4] is T2, STING. Kind of test: cGAMP dose-response IFN induction in the presence of increasing compound concentrations. The settings on record: for cGAMP induced IFN induction in the presence of increasing concentrations of compound: FIGS. 16A-16D. Format: cell-based. Here is the method:
Compounds UT009, UT019, UT073 and UT122 were tested for their ability to interfere with cGAMP induced STING signaling. FIGS. 16A-16D show dose response plots of cGAMP induced IFN induction in the presence of increasing concentrations of each compound.
(§2) Compounds UT017, UT018, UT019 and UT0122 were tested for their ability to interfere with STING signaling. Interferon production in the presence of increasing concentrations of UT017, UT018, UT019 or UT0122 were measured in THP-1 cell lines under basal conditions. […] Compound UT0122 was further tested in THP1-Lucia™ ISG cells for interferon production at varying concentration, in the presence of an increasing dose of a STING agonist cGAMP.

For test [5], the target named is T2, STING. As to the kind of experiment: Interferon production in THP-1 cells under basal conditions (no external stimulation). Format: cell-based. Particulars: for Comparative antagonistic effect among UT017, UT018, UT019, UT0122 / Relative induction of interferon production under basal conditions: THP-1 cell lines, basal conditions; for Relative induction of interferon production under basal conditions: increasing concentrations.
Text: as §1, §2
The STING pathway activity was evaluated in THP1-Dual™ cells (Invivogen). 1.5×10^5 THP1-Dual™ cells were seeded in 96-well plates and treated with the test compound followed by cGAMP (100 uM) or MSA-2 (10 uM, Science 2020, 369, eaba6098) 2 hours later. After incubating at 37° C. for 16 hours, the luciferase activity was measured by QUANTI-Luc™ (Invivogen).

As usually defined, the inhibition is the change of the read-out against control, counted positive when it falls. High values mean a strong effect, low ones a weak effect.

Molecules are shown by their SMILES.

T2 sequence (Q86WV6 whole entry R71H/G230A/H232R/R293Q): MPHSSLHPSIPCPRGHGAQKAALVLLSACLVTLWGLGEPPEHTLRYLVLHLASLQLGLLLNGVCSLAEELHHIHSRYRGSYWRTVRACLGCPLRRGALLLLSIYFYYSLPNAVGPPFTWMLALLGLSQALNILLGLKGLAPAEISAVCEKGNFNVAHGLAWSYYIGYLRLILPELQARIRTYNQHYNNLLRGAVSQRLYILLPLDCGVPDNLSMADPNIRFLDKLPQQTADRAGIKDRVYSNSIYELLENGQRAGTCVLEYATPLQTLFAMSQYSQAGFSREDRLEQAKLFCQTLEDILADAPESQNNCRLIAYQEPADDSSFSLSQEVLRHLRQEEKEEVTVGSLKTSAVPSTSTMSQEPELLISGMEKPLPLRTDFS
T1 sequence (Q86WV6 1-343 H232R): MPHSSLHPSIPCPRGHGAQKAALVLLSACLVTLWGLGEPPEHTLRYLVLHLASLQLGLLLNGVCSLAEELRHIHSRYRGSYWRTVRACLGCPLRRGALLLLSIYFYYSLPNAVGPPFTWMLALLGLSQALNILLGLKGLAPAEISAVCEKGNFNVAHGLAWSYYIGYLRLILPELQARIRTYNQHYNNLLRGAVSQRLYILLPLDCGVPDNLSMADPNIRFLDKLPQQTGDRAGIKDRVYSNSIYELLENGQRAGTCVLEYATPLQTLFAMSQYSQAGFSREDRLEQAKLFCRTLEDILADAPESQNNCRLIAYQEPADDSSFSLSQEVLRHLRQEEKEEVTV
human STING (Homo sapiens, UniProt Q86WV6), sequence (Q86WV6 whole entry H232R): as the sequence (Q86WV6 whole entry R71H/G230A/H232R/R293Q) above, with H71R, A230G, Q293R counted along it

Turning to `Cc1ccc2c(=O)c3cccc(CC(=O)O)c3oc2c1C` [DMXAA, 5,6-dimethylxanthenone-4-acetic acid], the “Activation of human STING” value on human STING [1] is “does not activate human STING”.
In the case of `CC1(C)C(=O)N(Cc2c(F)cccc2C(F)(F)F)c2cc(C(=O)NCc3c(F)cc(F)cc3F)ccc21` [UT009, 1-(2-fluoro-6-(trifluoromethyl)benzyl)-3,3-dimethyl-2-oxo-N-(2,4,6-trifluorobenzyl)indoline-6-carboxamide], on human STING [2], the “Binding site in human STING (cryo-EM)” value is listed as “bind at the same binding pocket as C53”. For the same compound, at STING [3], the inhibition at 10 µM is greater than 50%, the “Induction of interferon production in the presence of MSA2” value is listed as “inhibited the induction of interferon production in a dose dependent manner” and the “Interferon production in the presence of cGAMP” value is recorded as “reduction in interferon production with increasing concentration”. In addition, the “cGAMP induced IFN induction in the presence of increasing concentrations of compound” value at STING [4] was “dose-dependent suppression of interferon production”.
With `CC1(C)C(=O)N(Cc2c(F)cccc2Cl)c2cc(CNS(=O)(=O)c3c(F)cc(F)cc3F)ccc21` [UT019, N-((1-(2-chloro-6-fluorobenzyl)-3,3-dimethyl-2-oxoindolin-6-yl)methyl)-2,4,6-trifluorobenzenesulfonamide], the inhibition at 32 µM against STING [5] (32 μM compound, no external stimulation, THP-1 cells) is greater than 50%. On STING [5], the “Comparative antagonistic effect among UT017, UT018, UT019, UT0122” value is reported as “highest antagonistic effect” and the “Relative induction of interferon production under basal conditions” value was “suppressed at the highest concentration tested”. In addition, on STING [4], the “cGAMP induced IFN induction in the presence of increasing concentrations of compound” value is on record as “dose-dependent suppression of interferon production”.
Compound `CC1(C)C(=O)N(Cc2c(Cl)cccc2Oc2cc(F)cc(F)c2)c2cc(C(F)(F)F)ccc21` [UT073, 1-(2-chloro-6-(3,5-difluorophenoxy)benzyl)-3,3-dimethyl-6-(trifluoromethyl) indolin-2-one] showed an inhibition at 10 µM against STING [3] of less than 50%. For the same compound, the “cGAMP induced IFN induction in the presence of increasing concentrations of compound” value on STING [4] is on record as “dose-dependent suppression of interferon production”.
Turning to `Cc1nn(C)c(CN2C(=O)C(C)(C)c3ccc(C(=O)NCc4cc5ccccc5[nH]4)cc32)c1Br` [UT122, N-((1H-indol-2-yl)methyl)-1-((4-bromo-1,3-dimethyl-1H-pyrazol-5-yl)methyl)-3,3-dimethyl-2-oxoindoline-6-carboxamide], at STING [5], the “Comparative antagonistic effect among UT017, UT018, UT019, UT0122” value is listed as “highest antagonistic effect” and the “Relative induction of interferon production under basal conditions” value was “suppressed at the highest concentration tested”. At STING [3], the inhibition at 10 µM was greater than 50%, the “Induction of interferon production in the presence of MSA2” value was “antagonistic activity with an inhibition of interferon production in a dose dependent manner” and the “Interferon production in the presence of cGAMP” value is “antagonistic activity with an inhibition of interferon production in a dose dependent manner”. In addition, the “cGAMP induced IFN induction in the presence of increasing concentrations of compound” value on STING [4] was “dose-dependent suppression of interferon production”. Moreover, at STING [4] (THP1-Lucia ISG cells, varying compound concentration, increasing dose of cGAMP), the “Induction of interferon by cGAMP” value is “suppressed in a dose-dependent manner”.
